Common to all, as to assay type: functional
The test system of assay [1] is Enterococcus faecium. Nature of the assay: Antibacterial activity against Vancomycin-susceptible Enterococcus faecium ATCC 19434 assessed as inhibition of bacterial growth measured after 20 hrs by two-fold microdilution assay.
Assay [2] concerns Staphylococcus aureus. Nature of the assay: Antibacterial activity against penicillin-resistant Staphylococcus aureus ATCC 31007 assessed as inhibition of bacterial growth measured after 20 hrs by two-fold microdilution assay. (In general: In broth dilution the organism is exposed to a series of concentrations in liquid medium.)
The subject of assay [3] is Staphylococcus aureus. Nature of the assay: Antibacterial activity against methicillin-resistant Staphylococcus aureus ATCC43300 assessed as inhibition of bacterial growth measured after 20 hrs by two-fold microdilution assay.
Assay [4] concerns Staphylococcus epidermidis. The experiment in a line: Antibacterial activity against penicillin-resistant Staphylococcus epidermidis assessed as inhibition of bacterial growth measured after 20 hrs by two-fold microdilution assay.
Assay [5] has as its system Pseudomonas aeruginosa. The experiment in a line: Antibacterial activity against penicillin-susceptible Pseudomonas aeruginosa ATCC 27853 assessed as inhibition of bacterial growth measured after 20 hrs by two-fold microdilution assay.
The subject of assay [6] is Enterococcus faecalis. Nature of the assay: Antibacterial activity against Vancomycin-resistant Enterococcus faecalis ATCC 51299 assessed as inhibition of bacterial growth measured after 20 hrs by two-fold microdilution assay.
Assay [7] deals with Staphylococcus aureus. Nature of the assay: Antibacterial activity against erythromycin-susceptible Staphylococcus aureus ATCC 25923 assessed as inhibition of bacterial growth measured after 20 hrs by two-fold microdilution assay.
In assay [8] the test system is Enterococcus faecalis. Nature of the assay: Antibacterial activity against Vancomycin-susceptible Enterococcus faecalis ATCC 29212 assessed as inhibition of bacterial growth measured after 20 hrs by two-fold microdilution assay.
The test system of assay [9] is Streptococcus pyogenes. The experiment in a line: Antibacterial activity against erythromycin-resistant Streptococcus pyogenes assessed as inhibition of bacterial growth measured after 20 hrs by two-fold microdilution assay.
Assay [10] concerns Staphylococcus aureus. Nature of the assay: Antibacterial activity against clinical isolate Staphylococcus aureus C1 assessed as inhibition of bacterial growth measured after 20 hrs by two-fold microdilution assay.
In assay [11] the test system is Escherichia coli. Nature of the assay: Antibacterial activity against penicillin-susceptible Escherichia coli ATCC 25922 assessed as inhibition of bacterial growth measured after 20 hrs by two-fold microdilution assay.
Assay [12] deals with Streptococcus pyogenes. Nature of the assay: Antibacterial activity against erythromycin-susceptible Streptococcus pyogenes assessed as inhibition of bacterial growth measured after 20 hrs by two-fold microdilution assay.
For assay [13], the system named is Bacillus pumilus. The experiment in a line: Antibacterial activity against penicillin-susceptible Bacillus pumilus CMCC63202 assessed as inhibition of bacterial growth measured after 20 hrs by two-fold microdilution assay.
Assay [14] has as its system Enterococcus faecium. Nature of the assay: Antibacterial activity against Vancomycin-resistant Enterococcus faecium ATCC 51559 assessed as inhibition of bacterial growth measured after 20 hrs by two-fold microdilution assay.
Assay [15] deals with Bacillus subtilis. Nature of the assay: Antibacterial activity against penicillin-susceptible Bacillus subtilis ATCC 9372 assessed as inhibition of bacterial growth measured after 20 hrs by two-fold microdilution assay.
Assay [16] relates to Bacillus subtilis. The experiment in a line: Bactericidal activity against penicillin-susceptible Bacillus subtilis ATCC 9372 assessed as inhibition of bacterial growth measured after 20 hrs by two-fold microdilution assay.
The test system of assay [17] is Staphylococcus aureus. The experiment in a line: Bactericidal activity against erythromycin-susceptible Staphylococcus aureus ATCC 25923 assessed as inhibition of bacterial growth measured after 20 hrs by two-fold microdilution assay.

Structures are written as SMILES. A value given as a limit tells only on which side of the number the result lay.

From ChEMBL document CHEMBL4828726, “Modification of 5-methylphenanthridium from benzothiazoles to indoles as potent FtsZ inhibitors: Broadening the antibacterial spectrum toward vancomycin-resistant enterococci” (Eur J Med Chem, 2021) come the findings set out here.

`COc1ccc2cc3[n+](cc2c1OC)CCc1cc2c(cc1-3)OCO2` [BERBERINE]: the MIC in assay [1], in assay [2], in assay [3], in assay [4], in assay [5] and in assay [6] was above 64 mg/L each time. The MIC in [7] is 64 mg/L; in assay [8], above 64 mg/L; in [9], 64 mg/L; in [10], above 64 mg/L; in [11] it was above 64 mg/L; in assay [12], 64 mg/L. The MIC in assay [13], in [14] and in [15] was above 64 mg/L in each case.
For `Cc1cccc2c[n+](C)c3ccc(-c4ccc5ccn(Cc6ccc(C(F)(F)F)cc6)c5c4)cc3c12.[Cl-]`, the MIC is 8 mg/L in [1]; 8 mg/L in [2]; 8 mg/L in assay [3]; 4 mg/L in assay [4]; above 64 mg/L in [5]; 8 mg/L in assay [6]. Besides, the MIC is 2 mg/L in assay [7]; 16 mg/L in assay [8]; 16 mg/L in [9]; 8 mg/L in assay [10]; above 64 mg/L in assay [11]; 16 mg/L in assay [12]. The results for the MIC in assay [13], in assay [14] and in assay [15] were 4 mg/L, 8 mg/L and 2 mg/L, respectively.
For `CCCCn1ccc2ccc(-c3ccc4c(c3)c3cc(C)ccc3c[n+]4C)cc21.[Cl-]`, the minimum inhibitory concentration (MIC) in assay [1] is 8 mg/L; in assay [2], 8 mg/L; in assay [3] it was 8 mg/L; in assay [4] it was 16 mg/L; in assay [5], above 64 mg/L; in assay [6], 16 mg/L. Besides, the MIC was 2 mg/L in [7]; 8 mg/L in assay [8]; 16 mg/L in assay [9]; 4 mg/L in assay [10]; above 64 mg/L in assay [11]; 8 mg/L in [12]. Besides, the values for the MIC in assay [13], in [14] and in assay [15] were 8 mg/L, 8 mg/L and 4 mg/L, respectively.
Consider `Cc1cccc2c[n+](C)c3ccc(-c4nc5ccccc5s4)cc3c12.[Cl-]`, for which the MIC is 8 mg/L in assay [1]; 4 mg/L in [2]; 4 mg/L in [3]; 4 mg/L in assay [4]; above 64 mg/L in assay [5]; 16 mg/L in assay [6]. Further, the MIC in [7] is 2 mg/L; in [8], 1 mg/L; in [9], 4 mg/L; in assay [10], 4 mg/L; in [11], above 64 mg/L; in assay [12], 4 mg/L. Further, the MIC turned out to be 4 mg/L in [13], 16 mg/L in assay [14] and 4 mg/L in assay [15]. Also, the MBC in [16] and in [17] was above 64 mg/L each time.

In general, MIC refers to the least concentration at which growth counts as inhibited. The MBC is the smallest concentration meeting the test's criterion for killing.
